The target of this assay is T1, 5-hydroxytryptamine receptor 1A (Rattus norvegicus, UniProt P19327).
T1 sequence (P19327 whole entry): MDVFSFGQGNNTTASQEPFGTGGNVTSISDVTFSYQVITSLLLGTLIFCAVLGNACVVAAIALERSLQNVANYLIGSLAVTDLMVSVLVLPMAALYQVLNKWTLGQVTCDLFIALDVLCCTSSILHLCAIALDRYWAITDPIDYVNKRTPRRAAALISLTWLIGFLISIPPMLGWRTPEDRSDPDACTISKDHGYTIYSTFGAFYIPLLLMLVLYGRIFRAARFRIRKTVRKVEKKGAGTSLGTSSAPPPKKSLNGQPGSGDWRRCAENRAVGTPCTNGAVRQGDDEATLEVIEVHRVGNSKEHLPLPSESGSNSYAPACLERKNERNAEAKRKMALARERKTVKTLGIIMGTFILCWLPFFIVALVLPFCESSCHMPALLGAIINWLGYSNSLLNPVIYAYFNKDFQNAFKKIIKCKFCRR

Where “and” joins values, the source holds several entries; their conditions need not be identical. Equal values may be shown once.

For orientation: Ki means the equilibrium dissociation constant of an inhibitor or competing ligand from its target. Turning to `CN1CCC(=C2c3ccccc3CCc3sccc32)CC1` [NSC_27400], the Ki was 2.19 µM and 6.17 µM.
The value for `CN(C)CCCSc1ccccc1NC(=O)/C=C/c1ccccc1` [CINANSERIN] was 1.1 µM and > 10 µM; that for `COc1ccc2[nH]cc(CCN(C)C)c2c1` [3-(2-DIMETHYLAMINOETHYL)-5-METHOXYINDOLE] was 0.0398 µM and 0.288 µM.
`CC(CN1c2ccccc2Sc2ccccc21)N(C)C` (stereo not drawn) [N,N,alpha-trimethyl-10H-phenothiazine-10-ethanamine] returned a Ki above 10 µM.
The value for `NCCc1c[nH]c2ccccc12` [1H-indole-3-ethanamine] was 3.72 µM and > 10 µM.
For `NCCc1ccc(O)c(O)c1` the value was above 10 µM; for `CN1C[C@H](CNC(=O)OCc2ccccc2)C[C@@H]2c3cccc4c3c(cn4C)C[C@H]21` [METERGOLINE], 0.0347 µM and 0.245 µM; for `CN1C2CCC1CC(OC(c1ccccc1)c1ccccc1)C2` (stereo not given), above 10 µM.
The value for `CN(C)CCCN1c2ccccc2CCc2ccccc21` was above 10 µM.
On to `O=C(c1ccc(F)cc1)C1CCN(CCn2c(=O)[nH]c3ccccc3c2=O)CC1` [3-(2-{4-[(4-fluorophenyl)carbonyl]piperidin-1-yl}ethyl)-1,2,3,4-tetrahydroquinazoline-2,4-dione], for which the Ki is 4.17 µM and > 10 µM.
